Reference: the supplement of paper PMC11061612

Tests used:
Venetoclax = compound: CC1(C)CCC(CN2CCN(c3ccc(C(=O)NS(=O)(=O)c4ccc(NCC5CCOCC5)c([N+](=O)[O-])c4)c(Oc4cnc5[nH]ccc5c4)c3)CC2)=C(c2ccc(Cl)cc2)C1 [Venetoclax]; details: max 1 µM
How it was run: (§1)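 Cancer cell lines in 1536-well plates (7.5 μl DMEM/F12 or RPMI, 10% FBS) were held 24 hours at 37°C and 5% CO2 and then dosed for 72 hours at a final DMSO of typically 0.2%. Viability was taken from CellTiter-Glo 2.0 luminescence, scaled between blank-well and DMSO-well means. Curves were fitted as two-parameter logistic models with a non-linear mixed effects model, from which the single-agent IC50 was taken.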

Selumetinib = compound: Cn1cnc2c(F)c(Nc3ccc(Br)cc3Cl)c(C(=O)NOCCO)cc21 [Selumetinib]; details: max 10 µM
How it was run: as §1

Taselisib = compound: Cc1nc(-c2cn3c(n2)-c2ccc(-c4cnn(C(C)(C)C(N)=O)c4)cc2OCC3)n(C(C)C)n1 [Taselisib]; details: max 10 µM
How it was run: as §1

Trametinib = compound: CC(=O)Nc1cccc(-n2c(=O)n(C3CC3)c(=O)c3c(Nc4ccc(I)cc4F)n(C)c(=O)c(C)c32)c1 [Trametinib]; details: max 1 µM
How it was run: as §1

Savolitinib = compound: C[C@@H](c1ccc2nccn2c1)n1nnc2ncc(-c3cnn(C)c3)nc21 [Savolitinib]; details: max 1 µM
How it was run: as §1

Doxorubicin = compound: COc1cccc2c1C(=O)c1c(O)c3c(c(O)c1C2=O)C[C@@](O)(C(=O)CO)C[C@@H]3O[C@H]1C[C@H](N)[C@H](O)[C@H](C)O1 [Doxorubicin]; details: max 1 µM
How it was run: as §1

Alisertib = compound: COc1cc(Nc2ncc3c(n2)-c2ccc(Cl)cc2C(c2c(F)cccc2OC)=NC3)ccc1C(=O)O [Alisertib]; details: max 10 µM
How it was run: as §1

AZD1390 = compound: CC(C)n1c(=O)n(C)c2cnc3cc(F)c(-c4ccc(OCCCN5CCCCC5)nc4)cc3c21 [AZD1390]; details: max 0.3 µM
How it was run: as §1

Gefitinib = compound: COc1cc2ncnc(Nc3ccc(F)c(Cl)c3)c2cc1OCCCN1CCOCC1 [Gefitinib]; details: max 10 µM
How it was run: as §1

Prexasertib = compound: COc1cccc(OCCCN)c1-c1cc(Nc2cnc(C#N)cn2)n[nH]1 [Prexasertib]; details: max 1 µM
How it was run: as §1

Lapatinib = compound: CS(=O)(=O)CCNCc1ccc(-c2ccc3ncnc(Nc4ccc(OCc5cccc(F)c5)c(Cl)c4)c3c2)o1 [Lapatinib]; details: max 10 µM
How it was run: as §1

SN-38 = compound: CCc1c2c(nc3ccc(O)cc13)-c1cc3c(c(=O)n1C2)COC(=O)[C@]3(O)CC [SN-38]; details: max 0.3 µM
How it was run: as §1

Crizotinib = compound: C[C@@H](Oc1cc(-c2cnn(C3CCNCC3)c2)cnc1N)c1c(Cl)ccc(F)c1Cl [Crizotinib]; details: max 10 µM
How it was run: as §1

Capivasertib = compound: C1CN(CCC1(C(=O)N[C@@H](CCO)C2=CC=C(C=C2)Cl)N)C3=NC=NC4=C3C=CN4 [Capivasertib]; details: max 10 µM
How it was run: as §1

Palbociclib = compound: CC(=O)c1c(C)c2cnc(Nc3ccc(N4CCNCC4)cn3)nc2n(C2CCCC2)c1=O [Palbociclib]; details: max 10 µM
How it was run: as §1

AZD8186 = compound: C[C@@H](Nc1cc(F)cc(F)c1)c1cc(C(=O)N(C)C)cc2c(=O)cc(N3CCOCC3)oc12 [AZD8186]; details: max 3 µM
How it was run: as §1

AZD0156 = compound: CN(C)CCCOc1ccc(-c2ccc3ncc4c(c3c2)n(C2CCOCC2)c(=O)n4C)cn1 [AZD0156]; details: max 3 µM
How it was run: as §1

AZD5153 = compound: COc1nnc2ccc(N3CCC(c4ccc(OCCN5CCN(C)C(=O)[C@H]5C)cc4)CC3)nn12 [AZD5153]; details: max 1 µM
How it was run: as §1

Olaparib = compound: O=C(c1cc(Cc2n[nH]c(=O)c3ccccc23)ccc1F)N1CCN(C(=O)C2CC2)CC1 [Olaparib]; details: max 10 µM
How it was run: as §1

SG3199 = compound: CC1=CN2[C@@H](C1)C=NC3=CC(=C(C=C3C2=O)OC)OCCCCCOC4=C(C=C5C(=C4)N=C[C@@H]6CC(=CN6C5=O)C)OC [SG3199]; details: max 0.001 µM
How it was run: as §1

AZD6738 = compound: C[C@@H]1COCCN1C2=NC(=NC(=C2)C3(CC3)[S@](=N)(=O)C)C4=C5C=CNC5=NC=C4 [AZD6738]; details: max 10 µM
How it was run: as §1

AZD5991 = compound: Cc1c2c(nn1C)CSCc1cc(n(C)n1)CSc1cc(c3ccccc3c1)OCCCc1c(C(=O)O)n(C)c3c-2c(Cl)ccc13 [AZD5991]; details: max 1 µM
How it was run: as §1

Dasatinib = compound: CC1=C(C(=CC=C1)Cl)NC(=O)C2=CN=C(S2)NC3=CC(=NC(=N3)C)N4CCN(CC4)CCO [Dasatinib]; details: max 2 µM
How it was run: as §1

AZD2811 = compound: CCN(CCO)CCCOc1ccc2c(Nc3cc(CC(=O)Nc4cccc(F)c4)[nH]n3)ncnc2c1 [AZD2811]; details: max 1 µM
How it was run: as §1

AZD4320 = compound: CN(CC[C@H](CSC1=CC=CC=C1)NC2=C(C=C(C=C2)S(=O)(=O)NC(=O)C3=CC=C(C=C3)N4CCC(CC4)[C@H](C5=CC=CC=C5C6=CC=C(C=C6)Cl)O)S(=O)(=O)C(F)(F)F)CCO [AZD4320]; details: max 1 µM
How it was run: as §1

AZD7648 = compound: Cc1cc2ncnn2cc1Nc1ncc2c(n1)n(C1CCOCC1)c(=O)n2C [AZD7648]; details: max 10 µM
How it was run: as §1

AZD1775 = compound: C=CCn1c(=O)c2cnc(Nc3ccc(N4CCN(C)CC4)cc3)nc2n1-c1cccc(C(C)(C)O)n1 [AZD1775]; details: max 3 µM
How it was run: as §1

Cell Line | IC50, cell viability 72 h (Venetoclax) | IC50, cell viability 72 h (Selumetinib) | IC50, cell viability 72 h (Taselisib) | IC50, cell viability 72 h (Trametinib) | IC50, cell viability 72 h (Savolitinib) | IC50, cell viability 72 h (Doxorubicin) | IC50, cell viability 72 h (Alisertib) | IC50, cell viability 72 h (AZD1390) | IC50, cell viability 72 h (Gefitinib) | IC50, cell viability 72 h (Prexasertib) | IC50, cell viability 72 h (Lapatinib) | IC50, cell viability 72 h (SN-38) | IC50, cell viability 72 h (Crizotinib) | IC50, cell viability 72 h (Capivasertib) | IC50, cell viability 72 h (Palbociclib) | IC50, cell viability 72 h (AZD8186) | IC50, cell viability 72 h (AZD0156) | IC50, cell viability 72 h (AZD5153) | IC50, cell viability 72 h (Olaparib) | IC50, cell viability 72 h (SG3199) | IC50, cell viability 72 h (AZD6738) | IC50, cell viability 72 h (AZD5991) | IC50, cell viability 72 h (Dasatinib) | IC50, cell viability 72 h (AZD2811) | IC50, cell viability 72 h (AZD4320) | IC50, cell viability 72 h (AZD7648) | IC50, cell viability 72 h (AZD1775)
HDQ-P1 (Breast Carcinoma) | > 1000 nM | > 10000 nM | 4570 nM | > 1000 nM | > 1000 nM | > 1000 nM | > 10000 nM | > 300 nM | > 10000 nM | 530 nM | > 10000 nM | 95.8 nM | > 10000 nM | > 10000 nM | > 10000 nM | > 3000 nM | > 3000 nM | > 1000 nM | > 10000 nM | > 1 nM | > 10000 nM | > 1000 nM | 103 nM | > 1000 nM | > 1000 nM | > 10000 nM | 565 nM
HL-60 (Acute Myeloid Leukemia) | 80.3 nM | 642 nM | > 10000 nM | 12.4 nM | > 1000 nM | 159 nM | 407 nM | > 300 nM | > 10000 nM | 16.6 nM | > 10000 nM | 6.04 nM | 5820 nM | > 10000 nM | > 10000 nM | > 3000 nM | > 3000 nM | 37 nM | > 10000 nM | > 1 nM | 7320 nM | 35.7 nM | > 2000 nM | 30.6 nM | 32.7 nM | > 10000 nM | 1670 nM
KARPAS-45 (T-Lymphoblastic Leukemia) | > 1000 nM | > 10000 nM | 1450 nM | > 1000 nM | > 1000 nM | > 1000 nM | 86.3 nM | > 300 nM | 9060 nM | 33.6 nM | 4370 nM | > 300 nM | 1170 nM | 3210 nM | 624 nM | > 3000 nM | > 3000 nM | 25.1 nM | > 10000 nM | > 1 nM | 3140 nM | 93.1 nM | 937 nM | 6.87 nM | 52.1 nM | > 10000 nM | 243 nM
KCL-22 (Chronic Myelogenous Leukemia) | > 1000 nM | > 10000 nM | > 10000 nM | 915 nM | > 1000 nM | 335 nM | 8160 nM | > 300 nM | > 10000 nM | 13.8 nM | > 10000 nM | 37.9 nM | 2010 nM | > 10000 nM | > 10000 nM | > 3000 nM | > 3000 nM | 273 nM | > 10000 nM | > 1 nM | 927 nM | 369 nM | < 2 nM | > 1000 nM | > 1000 nM | > 10000 nM | 525 nM
